According to patent US20240174690A1, “ANNULATED 2-AMINO-3-CYANO THIOPHENES AND DERIVATIVES FOR THE TREATMENT OF CANCER” (BOEHRINGER INGELHEIM INTERNATIONAL GMBH, priority 2021, published 2024):

What was measured:
KRAS (WT)::SOS1 = KRAS (WT)::SOS1 (Homo sapiens (Human), UniProt P01116, C118S); assay: KRAS::SOS1 AlphaScreen binding assay, KRAS WT
In short: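 KRAS 1-169 (biotinylated avi-tag) with GST-SOS1 564-1049 and 10 µM GDP in PBS/0.1% BSA/0.05% Tween 20: WT and G13D 10 nM each with 10 nM SOS1; G12D 10 nM and G12C 7.5 nM with 5 nM SOS1. After 30 min, glutathione acceptor/streptavidin donor beads were added for 60 min at RT in the dark, then AlphaScreen read; 4-parameter IC50.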

GP2D cells = assay: GP2D proliferation assay (120 h) (colorectal cancer, G12D); format: cell-based
Experimental: GP2D Proliferation Assay (120 h) (Colorectal Cancer, G12D)
GP2D cells (ATCC No. CRL-5807) are dispensed into white 384-well plates, flat and white bottom (Perkin Elmer, 6007680) at a density of 500 cells per well in 40 μl DMEM (Sigma, D6429)+1×GlutaMAX (Gibco, 35050038)+10% FCS (fetal calf serum). […] Compounds (10 mM stock in DMSO) are added at logarithmic dose series using the HP Digital Dispenser D300 (Tecan), including DMSO controls and normalizing for added DMSO. For the TO time point measurement, untreated cells are analyzed at the time of compound addition. Plates are incubated for 120 h, and cell viability is measured using CellTiter-Glo luminescent cell viability reagent (Promega product code G7570). Viability (stated as percent of control) is defined as relative luminescence units RLU of each well divided by the RLU of cells in DMSO controls. IC50 values are determined from viability measurements by non-linear regression using a four parameter model.

KRAS (WT)::SOS1, sequence (P01116 other isoform, or with tags, fused parts or gaps C118S): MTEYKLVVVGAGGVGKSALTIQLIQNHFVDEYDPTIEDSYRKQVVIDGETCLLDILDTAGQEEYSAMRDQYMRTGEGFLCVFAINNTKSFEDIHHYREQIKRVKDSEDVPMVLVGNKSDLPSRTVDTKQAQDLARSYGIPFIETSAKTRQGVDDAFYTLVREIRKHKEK

| IC50 (KRAS (WT)::SOS1) [nM] | IC50 (GP2D cells) [nM] | Structure (SMILES) |
| --- | --- | --- |
| 42 |  | C[C@H](Oc1nc(-c2onc3c2CCC[C@@]32CCCc3sc(N)c(C#N)c32)cc(N2CCNC3(CC3)C2)n1)[C@@H]1CCCN1C [I-2] |
| 7 | 2 | C[C@H](Oc1cc(N2CCNC3(CCC3)C2)nc(-c2onc3c2CCC[C@@]32CCCc3sc(N)c(C#N)c32)n1)[C@@H]1CCCN1C [I-3] |
|  | 1170 | CO[C@@H]1C[C@@H]([C@H](C)Oc2cc(-c3ccn(C)n3)nc(-c3onc4c3CCC[C@@]43CCCc4sc(N)c(C#N)c43)n2)N(C)C1 [I-23] |
| 3 | 811 | C[C@H](Oc1cc(-c2ccn(C[C@@H](C)O)n2)nc(-c2onc3c2CCC[C@@]32CCCc3sc(N)c(C#N)c32)n1)[C@@H]1CCCN1C [I-30] |
|  | 588 | C[C@H](O)Cn1ccc(-c2cc(O[C@@H](C)[C@@H]3CCCN3C)nc(-c3onc4c3CCC[C@@]43CCCc4sc(N)c(C#N)c43)n2)n1 [I-31] |
| 4 | 872 | C[C@H](Oc1cc(-c2ccn(C3COC3)n2)nc(-c2onc3c2CCC[C@@]32CCCc3sc(N)c(C#N)c32)n1)[C@@H]1CCCN1C [I-34] |
| 4 | 24 | C[C@H](Oc1cc(N2CCN(C)C3(COC3)C2)nc(-c2onc3c2CCC[C@@]32CCCc3sc(N)c(C#N)c32)n1)[C@@H]1C[C@@H](F)CN1C [I-37] |
| 5 | 8 | C[C@H](Oc1cc(N2CCN(C)C3(CC3)C2)nc(-c2onc3c2CCC[C@@]32CCCc3sc(N)c(C#N)c32)n1)[C@@H]1CCCN1C [I-41] |
|  | 1 | CO[C@H]1CCN(C)[C@@H]1[C@H](C)Oc1cc(N2CCNC3(CC3)C2)nc(-c2onc3c2CCC[C@@]32CCCc3sc(N)c(C#N)c32)n1 [I-49] |
|  | 10 | CO[C@@H]1C[C@@H]([C@H](C)Oc2cc(N3CCN(C)C4(CC4)C3)nc(-c3onc4c3CCC[C@@]43CCCc4sc(N)c(C#N)c43)n2)N(C)C1 [I-50] |
|  | 11 | C[C@H](Oc1cc(N2C[C@@H](N(C)C)[C@@H](O)C2)nc(-c2noc3c2CCC[C@@]32CCCc3sc(N)c(C#N)c32)n1)[C@@H]1CCCN1C [II-10] |
| 4 | 78 | C[C@H](Oc1cc(N2C[C@@H](N(C)C)[C@@H](F)C2)nc(-c2noc3c2CCC[C@@]32CCCc3sc(N)c(C#N)c32)n1)[C@@H]1CCCN1C [II-11] |
| 15 | 9 | C[C@H](Oc1cc(N2CC[C@H](N3CCCCC3)C2)nc(-c2noc3c2CCC[C@@]32CCCc3sc(N)c(C#N)c32)n1)[C@@H]1CCCN1C [II-12] |
| 15 | 6 | C[C@H](Oc1cc(N2CC[C@H](N3CCCC3)C2)nc(-c2noc3c2CCC[C@@]32CCCc3sc(N)c(C#N)c32)n1)[C@@H]1CCCN1C [II-14] |
|  | 56 | C[C@H]1CN(C)CCCN1c1cc(N2CC[C@H](N(C)C)C2)nc(-c2noc3c2CCC[C@@]32CCCc3sc(N)c(C#N)c32)n1 [II-16] |
|  | 5 | C[C@H](Oc1cc(N2CCNC(C)(C)C2)nc(-c2noc3c2CCC[C@@]32CCCc3sc(N)c(C#N)c32)n1)[C@@H]1CCCN1C [II-32] |
|  | 4 | C[C@H](Oc1cc([C@H]2CCN(C)C2)nc(-c2noc3c2CCC[C@@]32CCCc3sc(N)c(C#N)c32)n1)[C@@H]1CCCN1C [II-38] |
|  | 5 | C[C@H](Oc1cc(N2CCNC3(CCC3)C2)nc(-c2noc3c2CCC[C@@]32CCCc3sc(N)c(C#N)c32)n1)[C@@H]1CCCN1C [II-40] |
| 53 |  | C[C@H](Oc1nc(-c2noc3c2CCC[C@@]32CCCc3sc(N)c(C#N)c32)cc(N2C[C@H](C)N[C@@H](C)C2)n1)[C@@H]1CCCN1C [II-46] |
|  | 105 | C[C@H](Oc1cc(N2CC[C@@H](N(C)C)C2)nc(-c2noc3c2CCC[C@@]32CCCc3sc(N)c(C#N)c32)n1)[C@@H]1CCCN1C [II-47] |
| 4 |  | [2H]C([2H])([2H])N1C[C@H](F)C[C@H]1[C@H](C)Oc1cc(N2CCNC3(CC3)C2)nc(-c2noc3c2CCC[C@@]32CCCc3sc(N)c(C#N)c32)n1 [II-208] |

| Structure (SMILES) | IC50 (KRAS (WT)::SOS1) [nM] | IC50 (GP2D cells) [nM] |
| --- | --- | --- |
| C[C@H](Oc1cc(-c2ccn(C)n2)nc(-c2onc3c2CCC[C@@]32CCCc3sc(N)c(C#N)c32)n1)[C@@H]1CCCN1C [I-21] |  | 546 |
